Assay results reported in US8694073B2, “Predicting efficacy of psychiatric treatment” (University of Utah Research Foundation, priority 2008, dated 2014).
Values joined by “and” are separate entries in the source; they are usually repeats but may differ in a detail not shown here. Identical values can stand only once.

Assays:
TSH = TSH level by solid-phase radioimmunoassay before treatment and at 4-weeks follow-up; assay type: in vivo, human; settings: MDD subjects n=19, after 4 weeks T3; baseline TSH 1.75 ± .71
MDD subjects = test: 4-week open T3 augmentation of SSRI, HAMD-17 depression rating; assay type: in vivo, human
Source text: 19 depressed subjects were recruited through advertisements and clinical referrals for a treatment study at Massachusetts General Hospital between 2001 and 2003, and underwent ^31P MRS scans before and after antidepression treatment. All 19 depressed subjects were between ages of 18 and 65, and suffered from MDD, as determined by pre-antidepression treatment score of ≧16 on the HAMD-17 scale. All 19 MDD subjects had previously shown minimal or no response to treatment with an SSRI taken for ≧8 weeks, with ≧4 weeks at a stable dose (fluoxetine ≧40 mg/day, sertraline ≧100 mg/day, paroxetine ≧40 mg/day, citalopram ≧40 mg/day, escitalopram ≧20 mg/day).
The HAMD-17 scale was administered every 2 weeks.
Nonparametric Wilcoxon rank sum (Mann-Whitney U) test was used to compare baseline levels of ^31P MRS metabolites between MDD subjects and normal control subjects. Clinical outcome was defined as response to treatment (HAMD-17 reduction ≧50% during treatment).

With N[C@@H](Cc1cc(I)c(Oc2ccc(O)c(I)c2)c(I)c1)C(=O)O [T3, triiodothyronine] the “Final TSH” value (TSH) was “.10 ± .24 mIU/L”, the “mean severity of depression HAMD-17 after 4 weeks of treatment” value (MDD subjects; MDD subjects n=19, T3 50 μg daily added to existing SSRI, baseline HAMD-17 20.3±3.6) was 13.3±6.6 and the “treatment responders (HAMD-17 reduction ≧50%)” value (MDD subjects; MDD subjects, T3 50 μg daily added to SSRI, 4 weeks, seven subjects) was 38.9% and 36.8%. For the same molecule, the “clinical remission (final HAMD-17<7)” value (MDD subjects; MDD subjects, T3 50 μg daily added to SSRI, 4 weeks, six subjects) was 31.6%.
